Measurements published in patent US20090270371A1, “QUINOLINE DERIVATIVES USEFUL IN THE TREATMENT OF MGLUR5 RECEPTOR-MEDIATED DISORDERS” (priority 2005, published 2009).

target: T1, rat mGluR5 receptors (Rattus norvegicus, UniProt P31424); experiment: mGluR5 receptor binding test, rat cerebro-cortical membrane preparation, [3H]-M-MPEP; settings: affinity for rat mGluR5 receptors; [3H]-M-MPEP (2 nM) radioligand
T1 construct: rat cerebro-cortical membrane preparation was used; from tissue; host or cells: rat cerebral cortex membranes
T1 sequence (P31424 21-1203): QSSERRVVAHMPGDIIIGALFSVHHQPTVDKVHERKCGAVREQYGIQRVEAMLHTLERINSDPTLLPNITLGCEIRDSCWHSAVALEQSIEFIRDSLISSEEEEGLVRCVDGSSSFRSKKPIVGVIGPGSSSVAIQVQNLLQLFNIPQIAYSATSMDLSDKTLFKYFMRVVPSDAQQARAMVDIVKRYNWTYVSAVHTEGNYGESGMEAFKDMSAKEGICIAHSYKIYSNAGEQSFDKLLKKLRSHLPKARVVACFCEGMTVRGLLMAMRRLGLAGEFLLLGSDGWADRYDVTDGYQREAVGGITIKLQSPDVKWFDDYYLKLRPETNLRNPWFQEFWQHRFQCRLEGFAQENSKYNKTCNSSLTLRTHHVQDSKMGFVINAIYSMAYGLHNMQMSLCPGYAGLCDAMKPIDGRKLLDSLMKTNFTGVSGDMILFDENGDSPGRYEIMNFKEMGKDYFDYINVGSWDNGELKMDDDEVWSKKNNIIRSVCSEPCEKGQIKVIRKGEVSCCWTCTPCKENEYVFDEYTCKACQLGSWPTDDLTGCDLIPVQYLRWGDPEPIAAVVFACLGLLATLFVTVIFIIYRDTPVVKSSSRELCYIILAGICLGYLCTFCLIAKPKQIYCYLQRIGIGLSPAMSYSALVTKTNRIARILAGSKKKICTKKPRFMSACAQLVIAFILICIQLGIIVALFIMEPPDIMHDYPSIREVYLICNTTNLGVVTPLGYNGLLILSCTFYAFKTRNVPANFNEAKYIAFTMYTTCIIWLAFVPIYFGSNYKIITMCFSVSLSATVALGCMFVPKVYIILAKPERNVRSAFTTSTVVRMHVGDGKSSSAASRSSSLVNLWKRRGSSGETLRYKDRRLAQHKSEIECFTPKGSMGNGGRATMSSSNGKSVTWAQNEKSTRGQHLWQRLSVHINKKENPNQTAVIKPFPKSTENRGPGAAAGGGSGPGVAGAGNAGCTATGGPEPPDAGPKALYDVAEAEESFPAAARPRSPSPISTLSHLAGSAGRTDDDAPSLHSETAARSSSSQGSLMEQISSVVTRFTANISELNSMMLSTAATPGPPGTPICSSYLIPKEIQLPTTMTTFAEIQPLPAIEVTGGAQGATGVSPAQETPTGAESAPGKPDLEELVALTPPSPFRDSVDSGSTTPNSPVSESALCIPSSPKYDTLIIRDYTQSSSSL
Outline: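 Radioligand binding used rat cerebro-cortical membranes with 2 nM [3H]-M-MPEP. Nonspecific binding was defined with 10 μM M-MPEP. The method follows a modification of a published procedure.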

| Compound | Ki [nM] |
| --- | --- |
| COc1ccc2ncc(S(=O)(=O)c3cc(F)cc(F)c3)c(N3CCC(C)CC3)c2c1 [Compound 240] | > 500 |
| COc1ccc2ncc(S(=O)(=O)c3ccc(F)cc3)c(N3CCC(C)CC3)c2c1 [Compound 241] | > 500 |
| COc1ccc2ncc(S(=O)(=O)c3ccc(OC)c(OC)c3)c(N3CCC(C)CC3)c2c1 [Compound 242] | > 500 |
| COc1cccc(S(=O)(=O)c2cnc3ccc(OC)cc3c2N2CCC(C)CC2)c1 [Compound 244] | > 500 |
| COc1ccc2ncc(S(=O)(=O)c3ccc(OC)c(Cl)c3)c(N3CCC(C)CC3)c2c1 [Compound 245] | > 500 |
| COc1ccc2ncc(S(=O)(=O)c3cccc(Cl)c3)c(N3CCC(C)CC3)c2c1 [Compound 246] | > 500 |
| Cc1ccc2ncc(S(=O)(=O)c3cc(F)cc(F)c3)c(N3CCOCC3)c2c1 [Compound 255] | > 500 |
| Cc1ccc2ncc(S(=O)(=O)c3ccc(F)cc3)c(N3CCOCC3)c2c1 [Compound 257] | > 500 |
| COc1ccc(S(=O)(=O)c2cnc3ccc(C)cc3c2N2CCOCC2)cc1 [Compound 258] | > 500 |
| Cc1ccc2ncc(S(=O)(=O)c3cccc(F)c3)c(N3CCOCC3)c2c1 [Compound 259] | > 500 |
| Cc1ccc2ncc(S(=O)(=O)c3cccc(Cl)c3)c(N3CCOCC3)c2c1 [Compound 263] | > 500 |
| Cc1ccc2ncc(S(=O)(=O)c3ccc(C#N)cc3)c(N3CCOCC3)c2c1 [Compound 265] | > 500 |
| Cc1ccc2ncc(S(=O)(=O)c3ccc(C)c(F)c3)c(N3CCOCC3)c2c1 [Compound 267] | > 500 |
| Cc1ccc2ncc(S(=O)(=O)c3ccc(F)c(F)c3)c(N3CCOCC3)c2c1 [Compound 268] | > 500 |
| COc1ccc2ncc(S(=O)(=O)c3cc(Cl)cc(Cl)c3)c(N3CCOCC3)c2c1 [Compound 271] | > 500 |
| COc1ccc2ncc(S(=O)(=O)c3cc(F)cc(F)c3)c(N3CCOCC3)c2c1 [Compound 272] | > 500 |
| COc1ccc2ncc(S(=O)(=O)c3cccc(C#N)c3)c(N3CCOCC3)c2c1 [Compound 273] | > 500 |
| COc1ccc2ncc(S(=O)(=O)c3cccc(Cl)c3)c(N3CCOCC3)c2c1 [Compound 274] | > 500 |
| COc1ccc2ncc(S(=O)(=O)c3ccc(F)cc3)c(N3CCOCC3)c2c1 [Compound 275] | > 500 |
| COc1ccc2ncc(S(=O)(=O)c3ccc(C)c(Cl)c3)c(N3CCOCC3)c2c1 [Compound 276] | > 500 |
| COc1ccc2ncc(S(=O)(=O)c3ccc(OC)c(Cl)c3)c(N3CCOCC3)c2c1 [Compound 277] | > 500 |
| COc1ccc2ncc(S(=O)(=O)c3ccc(Cl)c(Cl)c3)c(N3CCOCC3)c2c1 [Compound 278] | > 500 |
| O=S(=O)(c1cc(Cl)cc(Cl)c1)c1cnc2ccc(F)cc2c1N1CCOCC1 [Compound 280] | > 500 |
| N#Cc1cccc(S(=O)(=O)c2cnc3ccc(F)cc3c2N2CCOCC2)c1 [Compound 281] | > 500 |
| COc1ccc(S(=O)(=O)c2cnc3ccc(F)cc3c2N2CCOCC2)cc1 [Compound 282] | > 500 |
| COc1cccc(S(=O)(=O)c2cnc3ccc(F)cc3c2N2CCOCC2)c1 [Compound 283] | > 500 |

| Compound | Ki [nM] |
| --- | --- |
| COc1ccc(S(=O)(=O)c2cnc3ccc(F)cc3c2N2CCOCC2)cc1Cl [Compound 284] | > 500 |
| O=S(=O)(c1cccc(Cl)c1)c1cnc2ccc(F)cc2c1N1CCOCC1 [Compound 285] | > 500 |
| Cc1ccc(S(=O)(=O)c2cnc3ccc(F)cc3c2N2CCOCC2)cc1F [Compound 287] | > 500 |
| Cc1cc(C)cc(S(=O)(=O)c2cnc3ccc(F)cc3c2N2CCOCC2)c1 [Compound 289] | > 500 |
| O=S(=O)(c1ccccc1)c1cnc2ccc(Cl)cc2c1N1CCOCC1 [Compound 291] | > 500 |
| O=S(=O)(c1cc(Cl)cc(Cl)c1)c1cnc2ccc(Cl)cc2c1N1CCOCC1 [Compound 293] | > 500 |
| O=S(=O)(c1cc(F)cc(F)c1)c1cnc2ccc(Cl)cc2c1N1CCOCC1 [Compound 294] | > 500 |
| O=S(=O)(c1ccc(Cl)cc1)c1cnc2ccc(Cl)cc2c1N1CCOCC1 [Compound 295] | > 500 |
| COc1cccc(S(=O)(=O)c2cnc3ccc(Cl)cc3c2N2CCOCC2)c1 [Compound 296] | > 500 |
| O=S(=O)(c1cccc(Cl)c1)c1cnc2ccc(Cl)cc2c1N1CCOCC1 [Compound 297] | > 500 |
| N#Cc1cccc(S(=O)(=O)c2cnc3ccc(Cl)cc3c2N2CCOCC2)c1 [Compound 299] | > 500 |
| COc1ccc(S(=O)(=O)c2cnc3ccc(Cl)cc3c2N2CCOCC2)cc1Cl [Compound 301] | > 500 |
| O=S(=O)(c1ccc(F)c(Cl)c1)c1cnc2ccc(Cl)cc2c1N1CCOCC1 [Compound 302] | > 500 |
| Cc1ccc(S(=O)(=O)c2cnc3cc(F)ccc3c2N2CCOCC2)cc1 [Compound 303] | > 500 |
| O=S(=O)(c1ccccc1)c1cnc2cc(F)ccc2c1N1CCOCC1 [Compound 304] | > 500 |
| O=S(=O)(c1ccc(Cl)cc1)c1cnc2cc(F)ccc2c1N1CCOCC1 [Compound 305] | > 500 |
| O=S(=O)(c1cc(F)cc(F)c1)c1cnc2cc(F)ccc2c1N1CCOCC1 [Compound 310] | > 500 |
| N#Cc1cccc(S(=O)(=O)c2cnc3cc(F)ccc3c2N2CCOCC2)c1 [Compound 311] | 200 to 500 |
| COc1ccc(S(=O)(=O)c2cnc3cc(F)ccc3c2N2CCOCC2)cc1 [Compound 313] | > 500 |
| Cc1ccc(S(=O)(=O)c2cnc3cc(F)ccc3c2N2CCOCC2)cc1C [Compound 314] | 200 to 500 |
| O=S(=O)(c1ccc(F)c(F)c1)c1cnc2cc(F)ccc2c1N1CCOCC1 [Compound 315] | 200 to 500 |
| Cc1cc(C)cc(S(=O)(=O)c2cnc3cc(F)ccc3c2N2CCOCC2)c1 [Compound 317] | 200 to 500 |
| O=S(=O)(c1cc(F)cc(F)c1)c1cnc2cc(Cl)ccc2c1N1CCOCC1 [Compound 319] | 200 to 500 |
| N#Cc1cccc(S(=O)(=O)c2cnc3cc(Cl)ccc3c2N2CCOCC2)c1 [Compound 320] | 200 to 500 |
| O=S(=O)(c1ccc(F)cc1)c1cnc2cc(Cl)ccc2c1N1CCOCC1 [Compound 321] | > 500 |

The remaining lines, values ahead:

| Ki [nM] | Compound |
| --- | --- |
| < 200 | CC1CCN(c2c(S(=O)(=O)c3ccc(F)c(F)c3)cnc3c(F)cccc23)CC1 [Compound 238] |
| < 200 | COc1ccc2ncc(S(=O)(=O)c3cc(Cl)cc(Cl)c3)c(N3CCC(C)CC3)c2c1 [Compound 239] |
| 200 to 500 | COc1ccc2ncc(S(=O)(=O)c3cccc(F)c3)c(N3CCC(C)CC3)c2c1 [Compound 243] |
| 200 to 500 | COc1ccc2ncc(S(=O)(=O)c3ccc(C)c(F)c3)c(N3CCC(C)CC3)c2c1 [Compound 247] |
| < 200 | COc1ccc2ncc(S(=O)(=O)c3ccc(C)c(Cl)c3)c(N3CCC(C)CC3)c2c1 [Compound 248] |
| < 200 | COc1ccc2ncc(S(=O)(=O)c3ccc(Cl)c(Cl)c3)c(N3CCC(C)CC3)c2c1 [Compound 249] |
| 200 to 500 | COc1ccc2ncc(S(=O)(=O)c3ccc(C)c(C)c3)c(N3CCC(C)CC3)c2c1 [Compound 250] |
| 200 to 500 | CC1CCN(c2c(S(=O)(=O)c3ccc(F)cc3)cnc3ccc(C#N)cc23)CC1 [Compound 252] |
| 200 to 500 | CC1CCN(c2c(S(=O)(=O)c3ccc(Cl)cc3)cnc3c(Cl)ccc(Cl)c23)CC1 [Compound 253] |
| < 200 | Cc1ccc2ncc(S(=O)(=O)c3ccccc3)c(N3CCOCC3)c2c1 [Compound 254] |
| 200 to 500 | Cc1ccc2ncc(S(=O)(=O)c3cccc(C#N)c3)c(N3CCOCC3)c2c1 [Compound 256] |
| 200 to 500 | COc1cccc(S(=O)(=O)c2cnc3ccc(C)cc3c2N2CCOCC2)c1 [Compound 260] |
| 200 to 500 | COc1ccc(S(=O)(=O)c2cnc3ccc(C)cc3c2N2CCOCC2)cc1Cl [Compound 261] |
| 200 to 500 | Cc1ccc2ncc(S(=O)(=O)c3ccc(Cl)c(Cl)c3)c(N3CCOCC3)c2c1 [Compound 262] |
| 200 to 500 | Cc1ccc2ncc(S(=O)(=O)c3cc(Cl)cc(Cl)c3)c(N3CCOCC3)c2c1 [Compound 264] |
| 200 to 500 | Cc1ccc2ncc(S(=O)(=O)c3ccc(C)c(Cl)c3)c(N3CCOCC3)c2c1 [Compound 266] |

| Ki [nM] | Compound |
| --- | --- |
| 200 to 500 | COc1ccc2ncc(S(=O)(=O)c3ccccc3)c(N3CCOCC3)c2c1 [Compound 269] |
| < 200 | COc1ccc2ncc(S(=O)(=O)c3ccc(Cl)cc3)c(N3CCOCC3)c2c1 [Compound 270] |
| < 200 | O=S(=O)(c1ccccc1)c1cnc2ccc(F)cc2c1N1CCOCC1 [Compound 279] |
| 200 to 500 | O=S(=O)(c1ccc(Cl)c(Cl)c1)c1cnc2ccc(F)cc2c1N1CCOCC1 [Compound 286] |
| 200 to 500 | Cc1ccc(S(=O)(=O)c2cnc3ccc(F)cc3c2N2CCOCC2)cc1Cl [Compound 288] |
| 200 to 500 | O=S(=O)(c1ccc(F)c(Cl)c1)c1cnc2ccc(F)cc2c1N1CCOCC1 [Compound 290] |
| < 200 | Cc1ccc(S(=O)(=O)c2cnc3ccc(Cl)cc3c2N2CCOCC2)cc1 [Compound 292] |
| 200 to 500 | O=S(=O)(c1ccc(Cl)c(Cl)c1)c1cnc2ccc(Cl)cc2c1N1CCOCC1 [Compound 298] |
| 200 to 500 | Cc1ccc(S(=O)(=O)c2cnc3ccc(Cl)cc3c2N2CCOCC2)cc1Cl [Compound 300] |
| 200 to 500 | COc1cccc(S(=O)(=O)c2cnc3cc(F)ccc3c2N2CCOCC2)c1 [Compound 306] |
| 200 to 500 | COc1ccc(S(=O)(=O)c2cnc3cc(F)ccc3c2N2CCOCC2)cc1Cl [Compound 307] |
| 200 to 500 | O=S(=O)(c1cc(Cl)cc(Cl)c1)c1cnc2cc(F)ccc2c1N1CCOCC1 [Compound 308] |
| 200 to 500 | Cc1ccc(S(=O)(=O)c2cnc3cc(F)ccc3c2N2CCOCC2)cc1F [Compound 309] |
| < 200 | Cc1ccc(S(=O)(=O)c2cnc3cc(F)ccc3c2N2CCOCC2)cc1Cl [Compound 312] |
| < 200 | O=S(=O)(c1ccc(Cl)c(Cl)c1)c1cnc2cc(F)ccc2c1N1CCOCC1 [Compound 316] |
| < 200 | O=S(=O)(c1cc(Cl)cc(Cl)c1)c1cnc2cc(Cl)ccc2c1N1CCOCC1 [Compound 318] |
